Reference: US9585854B2, “N-acetyl-L-cysteine for use in in vitro fertilization” (IASOMAI AB, priority 2012, dated 2017)
Where “and” joins values, the source holds several entries; their conditions need not be identical. Equal entries are not always repeated. Where two headings read alike, the source gives them in different places.

Experiments:
1-cell rabbit embryos [1] = assay: rabbit embryo bioassay (embryotoxicity)
Source text: (§1) The eventual occurrence of NAC embryotoxicity was preliminary tested.
(§2) To verify the embryotoxicity of NAC the application of two embryotoxicity techniques—rabbit embryo bioassay and human sperm motility bioassay—were used.

[2] = thiol residue easily oxidized by oxygen, light and other radiations; cited from earlier work
[3] = cited from earlier work
1-cell rabbit embryos [4] = tested on: 1-cell rabbit embryos
Source text: as §1, §2

[5] = tested on: Isolated uteri from virgin Wistar rats; assay: isolated organ bath study of uterine contractions; design: species or system rat
Experimental: Animals were kept at 22° C., housed 3 per cage and fed ad libitum. Isolated uteri from virgin Wistar rats (200-280 g) in estrous, which was determined by examination of a daily vaginal smear, were used.
Protamine sulphate (PS) and NAC were dissolved in pure water.
All rats were sacrificed by cervical dislocation. The uterine horns were excised, carefully cleaned and mounted vertically in a 10 ml volume organ bath containing De Jalon's solution (NaCl 154 mM, KCl 5.6 mM, CaCl2×2H2O 0.41 mM, NaHCO 2 5.9 mM and glucose 2.8 mM), under 1 g tension, aerated with 95% oxygen and 5% carbon dioxide at 37° C. […] After 10 min increasing concentrations of PS were added until the total cessation of contractions was observed.
Myometrial tension was recorded isometrically with an organ bath and transducer.
Effects of treatments on uterine contractions were calculated as percentages for control, untreated and contracting conditions. Each data value is expressed as the mean±SEM. differences between groups were analyzed by two-way ANOVA. EC50 values were compared using one-way ANOVA

pregnancy = assay: pulsed oral administration of NAC to patients; type: in vivo, human; details: three consecutive days a week
Experimental: Below is the result from giving pulsed administration of NAC to 15 patients, 8 of which became pregnant. According to this, NAC was administered to patients per os for 3 months or more according to the following schedule: 600 mg three times a day, three consecutive days a week. […] 7, no. 4, pp. 355-359, 2007.]; (2) splitting the total dose in 3 is simple for patients and, with reference to the known NAC pharmacokinetics [[…] and […], “Pharmacokinetic and pharmacodynamic studies of N-acetylcysteine, a potential chemopreventive agent during a phase I trial,” Cancer Epidemiology Biomarkers and Prevention, vol. 4, no. 3, pp. 245-251, 1995.], grants a nearly constant plasma level of the drug; (3) the four-day medication-free interval provides a washout period useful to limit the reported decrease of NAC plasma level observed during prolonged treatments. According to examples described in the specification 15 patients were treated with pulsed administration of N-acetyl-L-cysteine for use in IVF orally in a dose of 600 mg three times a day during three consecutive days followed by four days of interruption during 3 months or more.

embryo implantation = embryo implantation in oxytocin-treated mice; type: in vivo; details: oxytocin-treated mice
Source text: Indeed, in mice, NAC was confirmed to support embryo implantation. In the animal model, embryo implantation rate was decreased when the mice were given oxytocin.
In mice, NAC was confirmed to support embryo implantation. In the animal model, embryo implantation rate was decreased when the mice were given oxytocin.

[6] = cited from earlier work; remark: listed apart in the source
uterine contractions = assay: clinical case: intravenous NAC prior to embryo transfer; type: in vivo, human; details: patient, NAC 50 mg/kg intravenous infusion 60 min
Experimental: The very first case of clinical application of NAC prior to embryo transfer was recently documented. NAC was administered in a concentration of 50 mg/kg to a patient who had previously undergone five embryo transfers involving a total number of 8 good-quality embryos. Immediately before embryo transfer, the presence of increased uterine contractile activity was confirmed by ultrasound. NAC 50 mg/kg body weight was administered in intravenous infusion for 60 min. Embryo transfer was carried out 60 min from the end of the 60 min NAC 50 mg/kg body weight administration. Both before connecting the infusion and directly before embryo transfer, a transvaginal sagittal scan recording was performed.

IVF = assay: NAC administration in connection with IVF treatment (clinical outcome); type: in vivo, human
Source text: To date, NAC has not been considered a drug in fertility treatment although it has been used for oral treatment of endometrioses as described in EP 2305238. In that study no conclusions about pregnancies were made. To the contrary when being treated for endometriosis it was not expected that any pregnancies could occur. […] This was one of the reasons why the present inventors started investigating whether NAC could be used in connection with IVF.
Already from the start of IVF it has been a problem that the clinical outcome in IVF treatment is low.
The composition of the present invention, comprising NAC for the treatment of IVF according to one embodiment to be administered intravenously at a dose between approximately 50 and 150 mg/kg/day.
In still another embodiment of the present invention the composition comprises NAC to be administered orally at a dose of approximately 30-45 mg/kg/day.

Jurkat cells = assay: Cell adhesion assay of Jurkat cells on fibronectin; type: cell-based, human; details: NAC 5 mM for 2 h pretreatment, eosin Y absorbance 540 nm, vs control
Experimental: Cell Adhesion Assay. Seven μg/ml of human fibronectin (Sigma Aldrich Chem Co) were saturated with 2% bovine serum albumin (BSA) for 30 min at 37° C. and washed twice with phosphate buffered saline (PBS). Jurkat cells were then seeded onto the wells for 2 h at 37° C.; then, nonadherent cells were aspirated, and the wells were rinsed with PBS. Adhering cells were fixed overnight with 2% formaldehyde and stained with eosin Y for 30 min. Eosin Y was then extracted by addition of a mixture of 1% of glacial acetic acid and 50% ethanol, and absorbance was measured at 540 nm.
NAC increases the adhesions of Jurkat cells on fibronectin. The adhesion assay was performed by using control or NAC (5 mM for 2 h)-treated Jurkat cells. […] Cell adhesion was then quantitated by staining the cells attached to junction protein-coated plates with eosin Y and reading the absorbance in a microplate reader.
Cells were solubilized and eosin Y and absorbance was quantitated at 540 nm. No antibody, illustrated by black bars; anti-VLA-4 (10 ng/ml) illustrated by grey bars; and anti-VLA-4 (10 μg/ml) illustrated by white bars. Data are means+/−SE(n=3).*, P less than 0.01 vs. control. From FIG. 1 it can be concluded that NAC treatment increases adhesion (junction protein molecules).

[7] = tested on: cancer cells of epithelial origin; details: cited from earlier work

Compound: CC(=O)N[C@@H](CS)C(=O)O [NAC, N-acetyl-L-cysteine]
- percentage of hatched rabbit blastocysts (1-cell rabbit embryos [1]): not to decrease the percentage of hatched rabbit blastocysts
- embryotoxic effect (1-cell rabbit embryos [1]; concentrations up to 50-fold therapeutic blood concentrations): failed to detect an embryotoxic effect
- stability [2]: not a stable molecule
- side effects ([3]; daily total NAC dose, per os): virtually free of side effects
- undesired side effect ([3]; general, doses in paracetamol poisoning about 40 g/day for 70 kg): virtually absent of undesired side effect
- side effects ([3]; intravenous, higher limit 150 mg/kg/day): virtually no side effects
- survival of 1-cell rabbit embryos (1-cell rabbit embryos [4]): not to affect the survival of 1-cell rabbit embryos
- effect of pre-treatment on PS-induced relaxation ([5]; NAC pre-treatment 1 μg/ml, spontaneously active uteri): increased PS-induced relaxation
- effect of pre-treatment on PS-induced relaxation ([5]; calcium ion-induced uterine contractions): modulated PS-induced relaxation
- pregnancy after months post NAC treatment (pregnancy; individual patients 1-8, pulsed oral NAC 600 mg three times a day): 14 months and 3 months and 1 months (2×) and 19 months and 8 months and 6 months and 0 months
- patients who became pregnant (pregnancy; of 15 patients, per os 600 mg three times a day, 3 months or more): 8
- implantation rates (embryo implantation): dose-dependently restored
- NAC plasma level after prolonged treatments ([6]; Pendyala and Creaven 1995): decrease in NAC plasma level
- diffusion in tissues and cells ([6]; in vivo): freely diffuses in almost all tissues and cells
- peak concentration in plasma reached in ([6]; in vivo): about one
- half-life ([6]; plasma): about three
- amplitude of uterine contractions (uterine contractions): apparent decrease in their amplitude
- uterine contractions directly before embryo transfer (uterine contractions; from 10 contractions per 3 min before infusion, transvaginal scan): five
- live births (IVF; NAC preferably a few days prior to IVF treatment): higher percentage of live births
- effectiveness in IVF (IVF; intravenous, lower limit approximately 50 mg/kg/day): effective in IVF
- IVF outcome (IVF; one person who had taken NAC orally for endometriosis, two previous IVF trials failed): successful IVF treatment
- effect in connection with IVF (IVF; oral, approximately 30-45 mg/kg/day): give effect in connection with IVF
- augmentation of cell adhesion (Jurkat cells): ~35%
- effect on proliferation of cancer cells of epithelial origin ([7]; Cell Death and Differentiation 2005): marked antiproliferative effect
- cell-cell and cell-substratum adhesion complexes ([7]; NAC-treated cancer cells): considerable increase
